In patent US9771369B2, “Compounds and methods for kinase modulation, and indications therefor” (Plexxikon Inc., priority 2014, dated 2017):

These compounds were tested against c-Kit kinase (Homo sapiens (Human), UniProt P10721) (assay: c-Kit biochemical assay (AlphaScreen kinase activity)).
Sequence of c-Kit kinase (P10721 26-976): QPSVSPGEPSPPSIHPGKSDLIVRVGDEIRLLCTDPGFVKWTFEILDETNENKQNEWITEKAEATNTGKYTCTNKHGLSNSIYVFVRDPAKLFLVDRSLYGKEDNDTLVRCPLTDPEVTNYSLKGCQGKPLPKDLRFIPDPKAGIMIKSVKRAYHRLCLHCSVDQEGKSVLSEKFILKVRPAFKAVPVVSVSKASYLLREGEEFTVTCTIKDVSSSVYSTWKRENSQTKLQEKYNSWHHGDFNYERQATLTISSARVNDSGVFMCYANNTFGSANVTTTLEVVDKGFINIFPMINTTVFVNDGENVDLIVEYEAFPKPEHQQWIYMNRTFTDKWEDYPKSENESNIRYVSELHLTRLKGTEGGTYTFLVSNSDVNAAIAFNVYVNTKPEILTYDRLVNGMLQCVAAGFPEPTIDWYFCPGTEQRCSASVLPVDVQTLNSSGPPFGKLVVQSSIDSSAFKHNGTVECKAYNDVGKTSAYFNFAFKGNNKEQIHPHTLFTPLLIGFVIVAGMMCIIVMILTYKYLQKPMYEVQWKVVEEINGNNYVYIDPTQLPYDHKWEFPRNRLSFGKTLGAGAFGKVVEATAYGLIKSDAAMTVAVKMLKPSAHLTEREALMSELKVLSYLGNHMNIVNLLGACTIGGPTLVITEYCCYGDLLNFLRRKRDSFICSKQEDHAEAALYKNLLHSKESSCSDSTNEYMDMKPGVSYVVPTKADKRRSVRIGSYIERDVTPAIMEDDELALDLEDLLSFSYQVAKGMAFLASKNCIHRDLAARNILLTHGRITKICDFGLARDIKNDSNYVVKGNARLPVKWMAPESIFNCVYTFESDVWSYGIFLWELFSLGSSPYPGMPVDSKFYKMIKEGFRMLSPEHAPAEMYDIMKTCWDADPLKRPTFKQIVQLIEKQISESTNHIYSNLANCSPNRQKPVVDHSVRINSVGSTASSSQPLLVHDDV
Outline: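 IC50 values come from 8-point, 1:3 compound titrations measuring inhibition of peptide phosphorylation by c-Kit (commercial or His-tagged E. coli-expressed) over 1 h at room temperature, read by AlphaScreen PY30/streptavidin beads. Low-ATP version: 10 μM ATP, 100 nM biotin-(E4Y)3; high-ATP version: 100 μM ATP, 30 nM biotin-(E4Y)10.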
In the case of COc1cc(-c2cc3c(N4CCC(c5nc(C)c(-c6ccc(OC(C)C)cc6)[nH]5)CC4)ncnc3[nH]2)ccn1 [P-3091, 4-[4-[5-(4-isopropoxyphenyl)-4-methyl-1H-imidazol-2-yl]-1-piperidyl]-6-(2-methoxy-4-pyridyl)-7H-pyrrolo[2,3-d]pyrimidine], the IC50 is reported as 0.0001 to 1 µM.
Cc1ccc(-c2[nH]c(C3CCN(c4ncnc5[nH]c(-c6ccc(C#N)cc6)cc45)CC3)nc2C)s1 [P-3090, 4-[4-[4-[4-methyl-5-(5-methyl-2-thienyl)-1H-imidazol-2-yl]-1-piperidyl]-7H-pyrrolo[2,3-d]pyrimidin-6-yl]benzonitrile] was tested, and the IC50 was 0.0001 to 1 µM.
Cc1nc(C2CCN(c3ncnc4[nH]c(-c5ccc(C#N)cc5)cc34)CC2)[nH]c1-c1ccc(OC(C)C)cc1 [P-3093, 4-[4-[4-[5-(4-isopropoxyphenyl)-4-methyl-1H-imidazol-2-yl]-1-piperidyl]-7H-pyrrolo[2,3-d]pyrimidin-6-yl]benzonitrile] gave an IC50 of 0.0001 to 1 µM.
Cc1ccc(-c2[nH]c(C3CCN(c4ncnc5[nH]c(-c6ccc(C#N)cc6)cc45)CC3)nc2C)cc1 [P-3089, 4-[4-[4-[4-methyl-5-(p-tolyl)-1H-imidazol-2-yl]-1-piperidyl]-7H-pyrrolo[2,3-d]pyrimidin-6-yl]benzonitrile] gave an IC50 of 0.0001 to 1 µM.
Compound CCOc1cc(-c2[nH]c(C3CCN(c4ncnc5[nH]c(-c6ccc(F)cc6)cc45)CC3)nc2C)ccc1C [P-3094, 4-[4-[5-(3-ethoxy-4-methyl-phenyl)-4-methyl-1H-imidazol-2-yl]-1-piperidyl]-6-(4-fluorophenyl)-7H-pyrrolo[2,3-d]pyrimidine] has an IC50 of 0.0001 to 1 µM.
Compound Cc1nc(C2CCN(c3ncnc4[nH]c(-c5ccc(F)cc5)cc34)CC2)[nH]c1-c1ccc(OC(C)C)cc1 [P-3092, 6-(4-fluorophenyl)-4-[4-[5-(4-isopropoxyphenyl)-4-methyl-1H-imidazol-2-yl]-1-piperidyl]-7H-pyrrolo[2,3-d]pyrimidine] has an IC50 of 0.0001 to 1 µM.
In the case of Cc1nc(C2CCN(c3ncnc4[nH]c(-c5ccc(F)cc5)cc34)CC2)[nH]c1-c1ccc(F)cc1 [P-3006, 6-(4-fluorophenyl)-4-[4-[5-(4-fluorophenyl)-4-methyl-1H-imidazol-2-yl]-1-piperidyl]-7H-pyrrolo[2,3-d]pyrimidine], the IC50 is reported as 0.0001 to 1 µM.
